In patent publication US20040224958A1, “Pyridopyrimidinone derivatives for treatment of neurodegenerative disease” (priority 2000, published 2004):
Where two headings read alike, the source gives them in different places.

Legend:
cdc2/cyclinB = cdc2/cyclinB (Homo sapiens, UniProt P06493); assay: Cyclin-Dependent Kinase Assay cdc2/cyclinB
cdk4/D = cdk4/D (Homo sapiens, UniProt P11802); assay: Cyclin-Dependent Kinase 4 (cdk4) Assay; type: biochemical; conditions: read-out: cdk4/D IC50
cdk2/cyclinA = cdk2/cyclinA (Homo sapiens, UniProt P24941); assay: Cyclin-Dependent Kinase Assay cdk2/cyclinA
Cdk5/p25 = Cdk5/p25 (Homo sapiens, UniProt Q00535); assay: Cyclin-Dependent Kinase 5 High Throughput Screening (cdk5-HTS) Assay; type: biochemical; conditions: high throughput screen
How it was run: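 Cdk5/p25 (1.0 μg/mL) phosphorylates GST-RbCOOH (20 μg/mL) in 50 mM Tris pH 7.4 with 10 mM MgCl2 and 20 μM ATP spiked with [γ33P]ATP, 30 min at room temperature. After EDTA stop, substrate captured on glutathione-coated plates; 33P incorporation counted by scintillation; IC50 determined.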

cdk2/cyclinE = cdk2/cyclinE (Homo sapiens, UniProt P24941); assay: Cyclin-Dependent Kinase Assay cdk2/cyclinE

cdk4/D, sequence (P11802 whole entry): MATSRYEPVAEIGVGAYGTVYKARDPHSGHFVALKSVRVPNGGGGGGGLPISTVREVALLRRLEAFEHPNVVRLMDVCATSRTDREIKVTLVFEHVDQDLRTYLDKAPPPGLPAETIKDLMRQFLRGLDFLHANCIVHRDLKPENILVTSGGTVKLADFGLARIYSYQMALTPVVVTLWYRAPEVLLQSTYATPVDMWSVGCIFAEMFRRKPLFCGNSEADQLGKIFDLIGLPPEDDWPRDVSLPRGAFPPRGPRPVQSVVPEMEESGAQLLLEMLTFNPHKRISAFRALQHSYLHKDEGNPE
cdk4/D, sequence (P24385 whole entry, further chain): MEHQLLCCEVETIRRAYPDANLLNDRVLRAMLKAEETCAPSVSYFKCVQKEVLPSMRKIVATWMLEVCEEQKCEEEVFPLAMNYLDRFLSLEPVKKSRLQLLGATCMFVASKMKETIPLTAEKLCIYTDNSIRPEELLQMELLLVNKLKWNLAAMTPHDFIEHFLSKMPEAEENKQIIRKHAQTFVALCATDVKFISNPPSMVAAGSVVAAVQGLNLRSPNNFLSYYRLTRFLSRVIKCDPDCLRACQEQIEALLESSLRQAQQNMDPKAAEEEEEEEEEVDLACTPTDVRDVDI
cdc2/cyclinB, sequence (P06493 whole entry): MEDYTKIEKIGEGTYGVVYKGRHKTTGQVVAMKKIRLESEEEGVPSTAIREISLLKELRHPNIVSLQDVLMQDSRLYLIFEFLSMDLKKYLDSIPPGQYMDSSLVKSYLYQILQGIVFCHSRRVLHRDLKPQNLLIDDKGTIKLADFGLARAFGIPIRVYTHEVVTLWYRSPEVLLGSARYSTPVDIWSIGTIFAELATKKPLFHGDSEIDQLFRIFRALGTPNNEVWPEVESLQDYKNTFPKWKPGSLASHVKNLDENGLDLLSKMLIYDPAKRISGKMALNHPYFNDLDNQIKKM
cdc2/cyclinB, sequence (P14635 whole entry, further chain): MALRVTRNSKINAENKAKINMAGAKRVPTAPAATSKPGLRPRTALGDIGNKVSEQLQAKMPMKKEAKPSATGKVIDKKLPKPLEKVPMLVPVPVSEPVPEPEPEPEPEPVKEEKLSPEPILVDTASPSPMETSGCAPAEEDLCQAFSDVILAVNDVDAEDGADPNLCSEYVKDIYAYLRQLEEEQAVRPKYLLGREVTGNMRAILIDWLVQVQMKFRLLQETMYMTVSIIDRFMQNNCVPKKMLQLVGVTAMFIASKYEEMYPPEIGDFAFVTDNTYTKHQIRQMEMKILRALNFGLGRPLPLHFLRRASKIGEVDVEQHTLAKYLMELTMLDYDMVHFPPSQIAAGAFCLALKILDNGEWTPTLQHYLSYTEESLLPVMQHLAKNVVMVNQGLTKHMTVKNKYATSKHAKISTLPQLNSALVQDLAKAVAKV

IC50 (cdc2/cyclinB) [nM]	IC50 (cdk4/D) [nM]	IC50 (cdk2/cyclinA; cdk2/A IC50) [nM]	IC50 (Cdk5/p25) [nM]	IC50 (cdk2/cyclinE; cdk2/E IC50) [nM]	IC50 (cdc2/cyclinB; read-out: cdk1/B IC50) [nM]	IC50 (cdk2/cyclinA; read-out: cdk2/A IC50) [nM]	IC50 (cdk2/cyclinE; read-out: cdk2/E IC50) [nM]	Molecule
150	97.5	340	96.5	86	–	–	–	CCCCn1c(=O)ccc2cnc(Nc3ccc4[nH]ccc4c3)nc21 [Example 378, 8-Butyl-2-(1H-indol-5-ylamino)-8H-pyrido[2,3-d]pyrimidin-7-one]
73	34	220	14	67	–	–	–	CCC(CC)n1c(=O)ccc2cnc(Nc3ccc(OC)c(F)c3)nc21 [Example 505, 8-(1-Ethyl-propyl)-2-(3-fluoro-4-methoxy-phenylamino)-8H-pyrido[2,3-d]pyrimidin-7-one]
1300	670	1700	260	340	–	–	–	CCCn1c(=O)ccc2cnc(Nc3cc([N+](=O)[O-])ccc3F)nc21 [Example 333, 2-(2-Fluoro-5-nitro-phenylamino)-8-propyl-8H-pyrido[2,3-d]pyrimidin-7-one]
530	360	75	63	710	–	–	–	CC(C)n1c(=O)ccc2cnc(Nc3ccc(OC(F)(F)F)cc3)nc21 [Example 444, 8-Isopropyl-2-(4-trifluoromethoxy-phenylamino)-8H-pyrido[2,3-d]pyrimidin-7-one]
260	44	260	54	99.3	–	–	–	CC(C)n1c(=O)ccc2cnc(Nc3ccc4[nH]ccc4c3)nc21 [Example 409, 2-(1H-Indol-5-ylamino)-8-isopropyl-8H-pyrido[2,3-d]pyrimidin-7-one]
–	540	–	120	–	440	960	240	2-(3-Hydroxy-4-methoxy-phenylamino)-8-propyl-8H-pyrido[2,3-d]pyrimidin-7-one [Example 296]
620	2800	3900	430	950	–	–	–	CCn1c(=O)ccc2cnc(Nc3cc(OC)cc(C(F)(F)F)c3)nc21 [Example 300, 8-Ethyl-2-(3-methoxy-5-trifluoromethyl-phenylamino)-8H-pyrido[2,3-d]pyrimidin-7-one]
1360	3010	3060	723	836	–	–	–	CCCCn1c(=O)ccc2cnc(Nc3ccc(F)cc3F)nc21 [Example 368, 8-Butyl-2-(2,4-difluoro-phenylamino)-8H-pyrido[2,3-d]pyrimidin-7-one]
520	100	460	39	360	–	–	–	CC(=O)Nc1cc(Nc2ncc3ccc(=O)n(C(C)C)c3n2)ccc1C#N [Example 424, N-[2-Cyano-5-(8-isopropyl-7-oxo-7,8-dihydro-pyrido[2,3-d]pyrimidin-2-ylamino)-phenyl]-acetamide]
1900	3600	1700	440	3600	–	–	–	Cc1cc(Nc2ncc3ccc(=O)n(C(C)C)c3n2)ccc1Br [Example 442, 2-(4-Bromo-3-methyl-phenylamino)-8-isopropyl-8H-pyrido[2,3-d]pyrimidin-7-one]
83	620	200	23.5	90.7	–	–	–	CCCCn1c(=O)ccc2cnc(Nc3ccc(OC)c(OC)c3)nc21 [Example 386, 8-Butyl-2-(3,4-dimethoxy-phenylamino)-8H-pyrido[2,3-d]pyrimidin-7-one]
320	2400	1700	74	120	–	–	–	CCCn1c(=O)ccc2cnc(Nc3ccc(OC)c(O)c3)nc21 [Example 336, 2-(3-Hydroxy-4-methoxy-phenylamino)-8-propyl-8H-pyrido[2,3-d]pyrimidin-7-one]
93	390	160	28	46	–	–	–	CCC(CC)n1c(=O)ccc2cnc(Nc3cc(C)c(O)c(C)c3)nc21 [Example 523, 8-(1-Ethyl-propyl)-2-(4-hydroxy-3,5-dimethyl-phenylamino)-8H-pyrido[2,3-d]pyrimidin-7-one]
180	350	310	150	440	–	–	–	CCCn1c(=O)ccc2cnc(Nc3ccc(C(F)(F)F)cc3)nc21 [Example 361, 8-Propyl-2-(4-trifluoromethyl-phenylamino)-8H-pyrido[2,3-d]pyrimidin-7-one]
62	28	280	33	95	–	–	–	CCC(CC)n1c(=O)ccc2cnc(Nc3ccc4[nH]c5ccccc5c4c3)nc21 [Example 516, 2-(9H-Carbazol-3-ylamino)-8-(I-ethyl-propyl)-8H-pyrido[2,3-d]pyrimidin-7-one]
220	1100	470	84	85	–	–	–	CCCCn1c(=O)ccc2cnc(Nc3ccc(F)c(C(F)(F)F)c3)nc21 [Example 390, 8-Butyl-2-(4-fluoro-3-trifluoromethyl-phenylamino)-8H-pyrido[2,3-d]pyrimidin-7-one]
85	120	350	23	82	–	–	–	Cc1cc(C)cc(Nc2ncc3ccc(=O)n(C4CCCC4)c3n2)c1 [Example 544, 8-Cyclopentyl-2-(3,5-dimethyl-phenylamino)-8H-pyrido[2,3-d]pyrimidin-7-one]
430	200	310	230	71	–	–	–	Cc1ccc(Nc2ncc3ccc(=O)n(CC4CC4)c3n2)cc1NS(C)(=O)=O [Example 592, N-[5-(8-Cyclopropylmethyl-7-oxo-7,8-dihydro-pyrido[2,3-d]pyrimidin-2-ylamino)-2-methyl-phenyl]-methanesulfonamide]
220	1700	250	99	180	–	–	–	O=c1ccc2cnc(Nc3cccc(C(F)(F)F)c3)nc2n1C1CCCC1 [Example 530, 8-Cyclopentyl-2-(3-trifluoromethyl-phenylamino)-8H-pyrido[2,3-d]pyrimidin-7-one]
425	357	420	145	157	–	–	–	CCCn1c(=O)ccc2cnc(Nc3ccccc3)nc21 [Example 309, 2-Phenylamino-8-propyl-8H-pyrido[2,3-d]pyrimidin-7-one]
491	216	1200	196	316	–	–	–	CCC(C)n1c(=O)ccc2cnc(Nc3cc([N+](=O)[O-])ccc3F)nc21 (stereo not shown) [Example 459, 8-sec-Butyl-2-(2-fluoro-5-nitro-phenylamino)-8H-pyrido[2,3-d]pyrimidin-7-one]
510	30	340	220	280	–	–	–	CC(=O)Nc1cc(Nc2ncc3ccc(=O)n(C4CCCC4)c3n2)ccc1C [Example 558, N-[5-(8-Cyclopentyl-7-oxo-7,8-dihydro-pyrido[2,3-d]pyrimidin-2-ylamino)-2-methyl-phenyl]-acetamide]
170	680	430	50	63	–	–	–	O=c1ccc2cnc(Nc3ccc(F)c(C(F)(F)F)c3)nc2n1CC1CC1 [Example 570, 8-Cyclopropylmethyl-2-(4-fluoro-3-trifluoromethyl-phenylamino)-8H-pyrido[2,3-d]pyrimidin-7-one]
160	300	83	90	180	–	–	–	CCCn1c(=O)ccc2cnc(Nc3ccc4cn[nH]c4c3)nc21 [Example 358, 2-(1H-Indazol-6-ylamino)-8-propyl-8H-pyrido[2,3-d]pyrimidin-7-one]
59.5	110	41.5	13.5	22.3	–	–	–	COc1ccc(Nc2ncc3ccc(=O)n(C4CCCC4)c3n2)cc1OC [Example 541, 8-Cyclopentyl-2-(3,4-dimethoxy-phenylamino)-8H-pyrido[2,3-d]pyrimidin-7-one]
92.4	492	296	56.6	62.5	–	–	–	CCCn1c(=O)ccc2cnc(Nc3cccc(I)c3)nc21 [Example 316, 2-(3-Iodo-phenylamino)-8-propyl-8H-pyrido[2,3-d]pyrimidin-7-one]
200	310	690	110	100	–	–	–	CCCCn1c(=O)ccc2cnc(Nc3ccc(Cl)c(C)c3)nc21 [Example 388, 8-Butyl-2-(4-chloro-3-methyl-phenylamino)-8H-pyrido[2,3-d]pyrimidin-7-one]
79	550	270	130	130	–	–	–	CC1Nc2ccc(Nc3ncc4ccc(=O)n(CC5CC5)c4n3)cc2C1C (stereo not shown) [Example 580, 8-Cyclopropylmethyl-2-(2,3-dimethyl-2,3-dihydro-1H-indol-5ylamino)-8H-pyrido[2,3-d]pyrimidin-7-one]
425	338	320	145	72.7	–	–	–	O=c1ccc2cnc(Nc3ccc(O)cc3F)nc2n1C1CCCC1 [Example 538, 8-Cyclopentyl-2-(2-fluoro-4-hydroxy-phenylamino)-8H-pyrido[2,3-d]pyrimidin-7-one]
